Converted amounts (≈) assume the structure as drawn.
Experiments:
Assay in all cases: Clonogenic assay, colony formation of tumor stem cells from xenografts
Format in all cases: cell-based, human
[1] = test system: CXF 158; settings: Colon, xenograft CXF 158, colony formation
Procedure: (§1) Using various human cancer xenografts in vitro, the concentrations of compound B which inhibit formation of tumor colonies of tumor stem cells by 50% (IC50) and 70% (IC70) are determined in a clonogenic assay. Specifically, each solid tumor of bladder cancer (BXF 1036 and BXF 1299), cervical cancer (CEXF 633 and CEXF 773), colic cancer (CXF 1103, CXF 158, CXF 1729, CXF 264 and CXF 280), gastric cancer (GXF 251 and GXF 97), head and neck cancer (HNXF 536), liver cancer (LIXF 575), non small cell lung cancer comprising adeno, squamous epithelium and large cell carcinoma (LXFA 1012, LXFA 289, LXFA 297, LXFA 526, LXFA 592, LXFA 629, LXFA 677, LXFE 409, LXFL 1072, LXFL 430LX and LXFL 529), small cell lung cancer (LXFS 650), mammary cancer (MAXF 1162, MAXF 1384, MAXF 401, MAXF 449, MAXF 574, MAXF 583, MAXF 713 and MAXF 857), melanoma (MEXF 1341, MEXF 462, MEXF 535 and MEXF 989), ovary cancer (OVXF 899), pancreatic cancer (PAXF 546 and PAXF 736), prostate cancer (DU-145 and PC3M), pleuramesothelioma (PXF 1752), renal cancer (RXF 1220, RXF 1393, RXF 393, RXF 631 and RXF 944LX), and sarcoma (SXF 1301 and SXF 463) engrafted on RPMI nu/nu thymus aplastic nude mice were explanted, disaggregated by mincing and enzymatic digestion for 50 minutes using 125 U/mL DNAse I, 41 U/mL collagenase IV, 100 U/ml hyaluronidase III, and 1 U/mL dispase I, and passed through sieves of 200 µm and 50 µm mesh size and washed twice with sterile PBS-buffer to remove cell aggregated from single cells. The clonogenic assay was performed in a 24 multiwell format. Each of the resulting single cell suspensions was added at a density of 2·10^4 to 6·10^4 cells per well to 0.2 ml of Iscove's Modified Dulbecco's Medium (IMDM) containing 20% fetal calf serum and 0.01% gentamicin supplemented with 0.4% (w/v) agar, and plated onto a bottom layer consisting of the same culture medium containing 0.75% (w/v) agar. After 24 hours IMDM containing 20% fetal calf serum and 0.01 % gentamicin, together with a test compound, was added there to. Then, the plate was incubated at 37°C for 10 to 20 days in a humidified atmosphere of air containing 7.5% CO2. Within this period, in vitro tumor growth led to the formation of colonies with a diameter of > 50µm. Colony counts were performed with an automatic image analysis system (OMNICON 3600). 24 hours prior to evaluation, vital colonies were stained with a vital staining dye. Therefore, 100 µl of a sterile aqueous solution of 2-(4-iodophenyl)-3-(4-nitrophenyl)-5-phenyltetrazolium chloride (1 mg/ml) were added to each well of the plate, and plates were incubated for 24 hours at 37°C in a humidified atmosphere of air containing 7.5% CO2. Inhibition of colony formation was expressed as test versus untreated control (T/C-value [%]). IC50 and IC70 values were determined by plotting compound concentration versus cell viability. Table 3: Inhibition of Colony Formation of Tumor Stem Cells by griseusin derivative B

[2] = test system: PAXF 546; settings: Pancreas, xenograft PAXF 546, colony formation
Procedure: as §1

[3] = test system: BXF 1299; settings: Bladder, xenograft BXF 1299, colony formation
Procedure: as §1

[4] = test system: MAXF 1162; settings: Breast, xenograft MAXF 1162, colony formation
Procedure: as §1

[5] = test system: CEXF 773; settings: Cervix, xenograft CEXF 773, colony formation
Procedure: as §1

[6] = test system: RXF 1220; settings: Kidney, xenograft RXF 1220, colony formation
Procedure: as §1

[7] = test system: CXF 264; settings: Colon, xenograft CXF 264, colony formation
Procedure: as §1

[8] = test system: MAXF 857; settings: Breast, xenograft MAXF 857, colony formation
Procedure: as §1

[9] = test system: MAXF 449; settings: Breast, xenograft MAXF 449, colony formation
Procedure: as §1

[10] = test system: MAXF 401; settings: Breast, xenograft MAXF 401, colony formation
Procedure: as §1

[11] = test system: RXF 631; settings: Kidney, xenograft RXF 631, colony formation
Procedure: as §1

[12] = test system: MAXF 713; settings: Breast, xenograft MAXF 713, colony formation
Procedure: as §1

[13] = test system: CXF 280; settings: Colon, xenograft CXF 280, colony formation
Procedure: as §1

C[C@@H]1CC(=O)[C@@H](O)[C@]2(O1)O[C@@H]1CC(=O)O[C@@H]1C1=C2C(=O)c2c(O)cccc2C1=O [Compound B, 4'-dehydro-deacetylgriseusin A]
IC50 [1]: 0.126 µg/mL (≈ 0.315 µM) | IC70 [1]: 0.358 µg/mL (≈ 0.894 µM) | IC50 [2]: 0.168 µg/mL (≈ 0.42 µM) | IC70 [2]: 0.420 µg/mL (≈ 1.05 µM) | IC50 [3]: 1.107 µg/mL (≈ 2.77 µM) | IC70 [3]: 1.662 µg/mL (≈ 4.15 µM) | IC50 [4]: 0.182 µg/mL (≈ 0.455 µM) | IC70 [4]: 0.362 µg/mL (≈ 0.904 µM) | IC50 [5]: 1.936 µg/mL (≈ 4.84 µM) | IC70 [5]: 2.333 µg/mL (≈ 5.83 µM) | IC50 [6]: 0.782 µg/mL (≈ 1.95 µM) | IC70 [6]: 0.952 µg/mL (≈ 2.38 µM) | IC50 [7]: 0.103 µg/mL (≈ 0.257 µM) | IC70 [7]: 0.215 µg/mL (≈ 0.537 µM) | IC50 [8]: 1.449 µg/mL (≈ 3.62 µM) | IC70 [8]: 1.975 µg/mL (≈ 4.93 µM) | IC50 [9]: 0.400 µg/mL (≈ 0.999 µM) | IC70 [9]: 0.648 µg/mL (≈ 1.62 µM) | IC50 [10]: 0.478 µg/mL (≈ 1.19 µM) | IC70 [10]: 0.782 µg/mL (≈ 1.95 µM) | IC50 [11]: 0.517 µg/mL (≈ 1.29 µM) | IC70 [11]: 0.719 µg/mL (≈ 1.8 µM) | IC50 [12]: 0.498 µg/mL (≈ 1.24 µM) | IC70 [12]: 0.700 µg/mL (≈ 1.75 µM) | IC50 [13]: 0.379 µg/mL (≈ 0.947 µM) | IC70 [13]: 0.609 µg/mL (≈ 1.52 µM)
